These results are taken from US6821991B2, “2-substituted thiazolidinones as β-3 adrenergic receptor agonists” (Wyeth, priority 2000, dated 2004).

One data set concerns the target T1, β3-adrenergic receptor (Homo sapiens, UniProt P13945).
T1 construct: Full length β3 AR clones (402 amino acids) containing the last 6 amino acids of hβ3-AR are prepared; expressed in transfected cells; host or cells: CHO (Chinese hamster ovary) cells
Kind of data set: cAMP accumulation (SPA) in CHO cells transfected with human β3 adrenergic receptor. The format is cell-based. To be noted: for EC50: CHO cells expressing human β3-AR, cAMP, 30 min, 37° C., 10^-9 M to 10^-5 M; for IA(β3): maximal response relative to maximal response of isoproterenol at 10^-5 M. Here is the method:
The ability of compounds of this invention to treat or inhibit disorders related to insulin resistance or hyperglycemia was established with representative compounds of this invention in the following standard pharmacological test procedures, which measured the binding selectivity to the β1, β2, and β3 adrenergic receptors. Binding to the receptors was measured in Chinese Hamster ovary (CHO) cells that were transfected with adrenergic receptors.
Cloning of Human β3-AR Genomic DNA: CDNA was constructed by ligating four polymerase chain reaction (PCR) products using the following primers: an ATG-Narl fragment, sense primer 5′-[…]3′, and anti-sense primer 5′[…]3′; a Narl-Accl fragment, 5′[…]3′ as sense and 5′[…]3′ as anti-sense primer; an Accli-Styl fragment, sense primer 5′[…]3′ and anti-sense primer 5′[…]3′ and a Styl-TAG fragment, with sense primer 5′[…]3′ and anti-sense primer 5′[…]3′. The corresponding primer sequences are described in Mantzoros, C. […] The four fragments are ligated into a pUC 18 plasmid (Gibco-BRL) and sequenced.
Binding Procedure: Clones expressing receptor levels of 70 to 110 fmoles/mg protein were used in the test procedures. CHO cells were grown in 24-well tissue culture plates in Dulbecco's Modified Eagle Media with 10% fetal bovine serum, MEM non-essential amino acids, Penicillin-Streptompycin and Geneticin. On the day of test procedure, growth medium was replaced with preincubation media (Dulbecco's Modified Eagle Media) and incubated for 30 minutes at 37° C. […] Test compounds were tested over a concentration range of 10^−9 M to 10^−5 M for β3 cells and 10^−8 to 10^−4 M for β1 and β2 transfected cells. Isoproterenol (10^−5 M) was used as an internal standard for comparison of activity. Cells were incubated at 37° C. on a rocker for 30 min with the β3 cells and 15 min for β1 and β2 cells. Incubation was stopped with the addition of 0.2N HCl and neutralized with 2.5N NaOH. The plates, containing the cells and neutralized media, were stored at −20 degrees celsius until ready to test for cAMP using the SPA test kit (Amersham).
Data Analysis and Results: Data collected from the SPA test procedure were analyzed as per cent of the maximal isoproterenol response at 10^−5 M. Activity curves were plotted using the SAS statistical and graphics software.
For orientation: cAMP levels reflect the balance of adenylyl cyclase and phosphodiesterase activity.

T1 sequence (P13945 whole entry): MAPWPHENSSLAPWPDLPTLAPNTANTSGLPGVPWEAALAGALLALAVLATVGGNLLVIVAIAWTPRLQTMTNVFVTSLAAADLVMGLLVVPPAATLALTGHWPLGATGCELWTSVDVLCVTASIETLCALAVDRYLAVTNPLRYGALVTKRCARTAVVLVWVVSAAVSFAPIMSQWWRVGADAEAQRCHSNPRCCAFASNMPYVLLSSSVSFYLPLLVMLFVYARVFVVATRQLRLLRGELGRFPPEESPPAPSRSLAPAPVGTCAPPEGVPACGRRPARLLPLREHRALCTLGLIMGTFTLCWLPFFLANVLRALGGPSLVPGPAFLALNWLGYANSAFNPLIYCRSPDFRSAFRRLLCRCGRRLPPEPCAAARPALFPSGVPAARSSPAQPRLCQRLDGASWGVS

The EC50 is the concentration that produces a half-maximal response. For orientation: melting point means the temperature, or range, at which the solid turns liquid. For the molecule `O=C1CCc2c(OC[C@@H](O)CNCCOc3ccc(C=C4SC(N5CCCCC5)=NC4=O)cc3)ccc(O)c2N1` [Example 34, 8-Hydroxy-5-((2S)-2-hydroxy-3-{2-[4-(4-oxo-2-piperidin-1-yl-4H-thiazol-5-ylidenemethyl)-phenoxy]-ethylamino}-propoxy)-3,4-dihydro-1H-quinolin-2-one], the melting point is > 115 °C (dec.). Also, on β3-adrenergic receptor, the response was half-maximal at 3 nM (EC50) and the “IA(β3)” value is 1.0.

Consider `CNC1=NC(=O)C(=Cc2ccc(N3CCC(NC[C@H](O)COc4cccc5[nH]c(=O)[nH]c45)CC3)cc2)S1` [Example 1, 4-((2S)-2-Hydroxy-3-{1-[4-(2-methylamino-4-oxo-4H-thiazol-5-ylidenemethyl)-phenyl]-piperidin-4-ylamino}-propoxy)-1,3-dihydrobenzoimidazol-2-one], for which the melting point is > 160 °C (dec.). At β3-adrenergic receptor, the response was half-maximal at 9 nM (EC50) and the “IA(β3)” value was 1.0.

As for `O=C1N=C(N2CCCCC2)SC1=Cc1ccc(N2CCC(NC[C@H](O)COc3ccc(O)cc3)CC2)cc1` [Example 16, 5-(4-{4-[(2S)-2-Hydroxy-3-(4-hydroxy-phenoxy)-propylamino]-piperidin-1-yl}-benzylidene)-2-piperidin-1-yl-thiazol-4-one], the melting point was > 85 °C (dec.). Moreover, at β3-adrenergic receptor, the EC50 was 75 nM and the “IA(β3)” value was determined as 0.96.

Regarding `CN(C)CCCNC1=NC(=O)C(=Cc2ccc(N3CCC(NC[C@H](O)COc4ccccc4)CC3)cc2)S1` [Example 26, 2-(3-Dimethylamino-propylamino)-5-{4-[4-((2S)-2-hydroxy-3-phenoxy-propylamino)-piperidin-1-yl]-benzylidene}-thiazol-4-one], the melting point was 166 to 168 °C (dec.). In addition, on β3-adrenergic receptor, the concentration for a half-maximal effect (EC50) was found to be 156 nM and the “IA(β3)” value is on record as 0.85.

Regarding `O=C1N=C(N2CCOCC2)SC1=Cc1ccc(N2CCC(NC[C@H](O)COc3ccc(O)cc3)CC2)cc1` [Example 23, 5-(4-{4-[(2S)-2-Hydroxy-3-(4-hydroxy-phenoxy)-propylamino]-piperidin-1-yl}-benzylidene)-2-morpholin-4-yl-thiazol-4-one], the melting point is > 100 °C (dec.). Also, on β3-adrenergic receptor, the response was half-maximal at 76 nM (EC50) and the “IA(β3)” value stood at 0.78.

On to `O=C1N=C(NC2CCN(Cc3ccccc3)CC2)SC1=Cc1ccc(N2CCC(NC[C@H](O)COc3cccc4[nH]c(=O)[nH]c34)CC2)cc1` [Example 3, 4-[(2S)-3-(1-{4-[2-(1-Benzyl-piperidin-4-ylamino)-4-oxo-4H-thiazol-5-ylidenemethyl]-phenyl}-piperidin-4-ylamino)-2-hydroxy-propoxy]-1,3-dihydro-benzoimidazol-2-one], for which the melting point was > 165 °C (dec.). At β3-adrenergic receptor, the EC50 stood at 30 nM and the “IA(β3)” value turned out to be 0.52.
